Measured values from patent publication US7989466B2, “Methods to inhibit or augment an inflammatory response” (Cambridge Enterprise Limited, priority 1999, dated 2011).
Where two headings read alike, the source gives them in different places. Positions of bridges follow the written chain, without caps; N, C: chain ends. Non-standard residues stand in square brackets, D forms with d. Residues, ends and D or L forms follow the SMILES beside them.

How the values were obtained:
∂-opioid receptors = target: T1, ∂-opioid receptors (Homo sapiens, UniProt P41143); test: Opioid receptor membrane binding (3H-Diprenorphine)
T1 construct: purchased RBI/Sigma 0-116
T1 sequence (P41143 whole entry): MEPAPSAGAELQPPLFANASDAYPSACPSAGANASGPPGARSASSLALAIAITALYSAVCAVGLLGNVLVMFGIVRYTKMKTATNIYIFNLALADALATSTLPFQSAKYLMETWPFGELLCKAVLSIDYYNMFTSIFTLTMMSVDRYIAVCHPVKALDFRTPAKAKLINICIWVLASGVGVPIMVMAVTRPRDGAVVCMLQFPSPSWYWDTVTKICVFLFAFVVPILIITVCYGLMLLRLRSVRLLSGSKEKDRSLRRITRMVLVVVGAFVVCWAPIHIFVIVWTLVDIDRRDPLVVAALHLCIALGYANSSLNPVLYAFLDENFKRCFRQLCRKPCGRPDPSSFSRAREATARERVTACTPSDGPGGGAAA
Description: For opioid receptor binding, membranes (0-116, RBI/Sigma) are diluted into binding buffer (75 mM Tris pH 7.4, 12.5 mM MgCl2 and 2 mM EDTA). For example, 10 μl of membranes are diluted in 500 μl of binding buffer (i.e., 1:50 dilution), which is aliquoted into labelled tubes. Cold competitor or test competitor is added (e.g. 5 μl of 100× stock solution; 5 μl of 100 μM naltrindole solution (N-115, RBI/Sigma in DMSO). Radioligand is then added (^3H-Diprenorphine, TRK 1060, Amersham, 250 μCi in 250 μl, 10.5 μM at 95 Ci/mmol). For competition studies, 0.5 nM is used. A 100× stock (i.e., […]) is made by diluting the commercial stock 1:210 in binding buffer, and 5 μl is added to every tube. Control tubes have radioligand but no membranes. The mixtures are vortexed, then spun very briefly. The mixtures are then incubated for 1 hour at 27° C. in a water bath. The mixture is filtered through GF/C filters over a vacuum. Each filter is pre-soaked in polyethyleneimine (0.3% in water; add 1 ml of 10% stock (P-261; RBI/Sigma) to 33 ml of MilliQ water). The tubes are washed with 2-3 ml of wash buffer (50 mM Tris pH 7.4) and the wash filtered. The filters are then rinsed with 3×5 ml of wash buffer, air dried, placed in a scintillation vial and 4.5 ml of scintillant added. The activity on the filter is then determined.

[1] = system: splenocyte recall response to Ova; test: Splenocyte recall cultures from ovalbumin-challenged treated mice; format: in vivo, mouse; set-up: IL-4, Avg. of Group: unit not given here
Description: In another study, BALB/c mice were sensitized with 0.1 mg of ovalbumin (OVA) or PBS (diluent control) intraperitoneally. Eight days following initial sensitization mice were challenged intratracheally with 1% ovalbumin or PBS (diluent control). On days fifteen, eighteen, twenty one, and thirty four, mice were challenged intratracheally with 2% ovalbumin of PBS. […] Thirty minutes following treatment, mice were challenged intratracheally with 2% OVA and sacrificed 3 hours after OVA challenge. […] On day 34 mice were re-challenged intratracheally with either 2% OVA or PBS. Mice were sacrificed 3 hours after challenge. Following sacrifice on day 21 or 34, lungs were collected for histopathology and for isolation of cells for total cell counts and identification by FACS analysis. Serum was collected for IgE and IL-4 levels. Spleens were collected for cytokine and antibody recall responses.

[2] = Mouse LD50 (modified LD50 technique); format: in vivo; conditions: for LD50: IV
CD4 T cells = conditions: 5 ng
B cells = format: cell-based
[3] = Stability against acid hydrolysis and trypsin; format: in vitro ADME; conditions: 5 units trypsin for 2 hrs at 37° C.
Description: For example, to prepare a peptide 3 derivative, peptide 3(3-12)[MCP-1] was modified according to Jameson et al. (Nature, 368, 744 (1994)), which yielded CRD-Cys13Leu4Ile11peptide 3(3-12)[MCP-1] (FIG. 3). CRD-Cys13Leu4Ile11peptide 3(3-12)[MCP-1], which had very similar properties to peptide 3(1-12)[MCP-1] […] CRD-Cys13Leu4Ile11peptide 3(3-12)[MCP-1] was also resistant to hydrolysis in vivo and allowed therapeutically useful plasma concentrations to be achieved (>10 μM 24 hours after a single intraperitoneal dose of 1 mg of CRD-Cys13Leu4Ile11peptide 3(3-12)[MCP-1] in 250 μL saline).

CC[C@@H](C)[C@H]1NC(=O)[C@@H](CCC(N)=O)NC(=O)[C@H](N)CSSC[C@H](C(N)=O)NC(=O)[C@@H](CC(C)C)NC(=O)[C@@H](CC(=O)O)NC(=O)[C@H]2CCCN2C(=O)[C@@H](CCCCN)NC(=O)[C@@H](CCC(N)=O)NC(=O)[C@@H](CCCCN)NC(=O)[C@@H](Cc2c[nH]c3ccccc23)NC1=O (H-[dC][dQ][dI][dW][dK][dQ][dK][dP][dD][dL][dC]-NH2; disulfide 1-11; N-terminus assumed)
EC50 (∂-opioid receptors): > 100 µM
IL-4, Avg. of Group ([1]; Group 5: Ova days 8, 15, 18, 21, peptide BID 14 days, sacrifice day 34 (No recent Ova challenge), 0 μg/ml Ova): 8.05
Total IgE (1 week splenocyte cultures) ([1]; Group 5, 5 μg/ml Ova): 0.082 ng/mL
Total IgE (1 week splenocyte cultures), Avg. ([1]; Group 5, 5 μg/ml Ova): 0.021
lethality after intraperitoneal administration ([2]; 11 mg i.p.): did not result in lethality
LD50 [2]: 11.4 mg/mouse
LD50 ([2]; in vivo, read-out: LD50): 569 mg/kg
reduction of ConA proliferation of CD4 T cells (CD4 T cells): < 3%
effect on proliferation of B cells to tetanus toxoid (B cells): no effect
stability against enzymatic destruction [3]: stable
